Assay results reported in patent US11084818B2 (HEPO PHARMACEUTICAL CO., LTD., priority 2016, dated 2021).
pEC50: −log10 of the molar value.

Columns and labels:
hTLR7 [1] = biological target: T1, hTLR7 (Homo sapiens, UniProt Q9NYK1); experiment: Activation activity test of hTLR7 (HEK-Blue hTLR7 cells, QUANTI-Blue OD650); format: cell-based; conditions: 24 hours incubation, read-out: TLR7 (EC50)
T1 construct: host or cells: HEK-Blue hTLR7 (HEK293-derived reporter line)
T1 sequence (Q9NYK1 27-1049): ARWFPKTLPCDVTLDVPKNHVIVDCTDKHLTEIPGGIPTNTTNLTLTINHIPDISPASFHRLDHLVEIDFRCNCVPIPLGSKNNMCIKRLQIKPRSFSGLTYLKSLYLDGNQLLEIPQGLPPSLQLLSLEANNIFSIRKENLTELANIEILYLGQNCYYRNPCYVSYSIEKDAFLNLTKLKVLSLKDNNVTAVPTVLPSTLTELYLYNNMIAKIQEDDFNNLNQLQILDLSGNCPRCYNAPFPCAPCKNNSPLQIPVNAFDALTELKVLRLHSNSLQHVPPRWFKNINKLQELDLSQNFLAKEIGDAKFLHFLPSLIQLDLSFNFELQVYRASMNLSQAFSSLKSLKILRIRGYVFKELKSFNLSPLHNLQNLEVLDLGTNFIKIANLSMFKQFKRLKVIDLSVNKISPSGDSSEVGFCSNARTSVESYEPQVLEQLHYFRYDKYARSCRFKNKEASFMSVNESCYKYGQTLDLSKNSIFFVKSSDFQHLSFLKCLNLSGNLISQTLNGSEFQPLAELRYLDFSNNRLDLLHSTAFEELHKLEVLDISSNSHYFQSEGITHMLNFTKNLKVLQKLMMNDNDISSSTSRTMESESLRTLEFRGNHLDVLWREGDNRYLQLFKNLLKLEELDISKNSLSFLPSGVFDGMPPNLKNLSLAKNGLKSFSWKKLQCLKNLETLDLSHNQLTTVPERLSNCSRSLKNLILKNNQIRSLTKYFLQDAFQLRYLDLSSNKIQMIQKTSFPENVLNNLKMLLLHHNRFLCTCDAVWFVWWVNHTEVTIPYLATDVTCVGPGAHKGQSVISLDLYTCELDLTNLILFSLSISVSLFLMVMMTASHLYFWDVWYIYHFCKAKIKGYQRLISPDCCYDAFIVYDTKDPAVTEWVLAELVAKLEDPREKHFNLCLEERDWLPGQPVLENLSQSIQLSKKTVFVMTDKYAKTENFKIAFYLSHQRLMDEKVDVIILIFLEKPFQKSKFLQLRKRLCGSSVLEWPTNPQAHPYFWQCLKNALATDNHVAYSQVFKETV

hTLR8 = biological target: T2, hTLR8 (Homo sapiens, UniProt Q9NR97); experiment: Activation activity test of hTLR8 (HEK-Blue hTLR8 cells, QUANTI-Blue OD650); format: cell-based; conditions: HEK-Blue hTLR8 cells, 24 hours incubation; read-out: TLR8 (EC50)
T2 construct: host or cells: HEK-Blue hTLR8 (HEK293-derived reporter line)
T2 sequence (Q9NR97 27-1041): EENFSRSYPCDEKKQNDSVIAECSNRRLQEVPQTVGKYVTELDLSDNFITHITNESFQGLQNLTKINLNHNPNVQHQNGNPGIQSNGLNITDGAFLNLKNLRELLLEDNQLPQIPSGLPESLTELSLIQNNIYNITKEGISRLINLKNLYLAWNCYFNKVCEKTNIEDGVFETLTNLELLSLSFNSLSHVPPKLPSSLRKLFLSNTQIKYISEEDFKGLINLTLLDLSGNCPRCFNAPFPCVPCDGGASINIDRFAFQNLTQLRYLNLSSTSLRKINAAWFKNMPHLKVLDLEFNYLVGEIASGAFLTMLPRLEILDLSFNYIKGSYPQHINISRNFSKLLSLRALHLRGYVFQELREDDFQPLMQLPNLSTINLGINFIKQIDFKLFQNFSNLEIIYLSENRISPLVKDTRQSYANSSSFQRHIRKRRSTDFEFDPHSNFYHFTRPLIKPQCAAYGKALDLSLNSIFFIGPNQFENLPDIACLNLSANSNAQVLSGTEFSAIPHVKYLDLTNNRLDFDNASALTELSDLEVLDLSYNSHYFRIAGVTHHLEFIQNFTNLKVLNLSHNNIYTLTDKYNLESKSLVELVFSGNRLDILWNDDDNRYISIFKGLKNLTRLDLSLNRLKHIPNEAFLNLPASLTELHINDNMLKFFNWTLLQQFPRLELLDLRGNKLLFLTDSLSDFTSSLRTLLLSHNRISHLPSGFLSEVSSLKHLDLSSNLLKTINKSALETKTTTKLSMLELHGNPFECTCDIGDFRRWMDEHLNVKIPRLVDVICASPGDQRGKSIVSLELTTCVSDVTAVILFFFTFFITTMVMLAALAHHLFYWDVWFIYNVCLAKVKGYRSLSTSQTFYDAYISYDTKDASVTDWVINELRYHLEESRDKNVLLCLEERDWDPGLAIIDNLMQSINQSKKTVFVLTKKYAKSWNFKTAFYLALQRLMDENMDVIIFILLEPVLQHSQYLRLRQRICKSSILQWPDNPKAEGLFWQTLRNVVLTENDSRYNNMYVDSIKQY

hTLR7 [2] = biological target: T1, hTLR7; experiment: EC50 of GS9620 for hTLR7 as reported in WO2016023511A1; conditions: in words, from the EC50 values reported in WO2016023511A1

Row | Structure (SMILES) | pEC50 (hTLR7 [1]) | pEC50 (hTLR8) | selectivity to TLR7 (hTLR7 [2])
1 | COCCOc1ncc2[nH]c(=O)n(Cc3ccc(C(C)N4CCCCC4)cc3)c2n1 (stereo not shown) [Example 15, 2-(2-methoxyethoxy)-9-(4-(1-(piperidin-1-yl)ethyl)benzyl)-7,9-dihydro-8H-purin-8-one] | 6.00 to 9.00 | < 4.00 | 
2 | CCCCOc1nc(N)c2c(n1)N(Cc1cccc(CN3CCCC3)c1)CC(=O)N2 [GS9620] |  |  | poor
3 | O=c1[nH]c2cnc(OCCOC(F)(F)F)nc2n1Cc1ccc(CN2CCCC2)cc1 [Example 43] | 6.00 to 9.00 | < 4.00 | 
4 | COCCOc1nc(C)c2[nH]c(=O)n(Cc3ccc(CN4CCCC4)cc3)c2n1 [Example 58, 9-(4-(pyrrolidin-1-ylmethyl)benzyl)-6-methyl-2-(2-methoxyethoxy)-7,9-dihydro-8H-purin-8-one] | < 4.00 | < 4.00 | 
5 | COCCOc1ncc2[nH]c(=O)n(Cc3ccc(CN4CCC[C@@H]4C(=O)OC)cc3)c2n1 [Example 7, methyl (4-((2-(2-methoxyethoxy)-8-oxo-7,8-dihydro-9H-purin-9-yl)methyl)benzyl)-D-pyrrolidine-2-carboxylate] | 4.00 to 5.00 | < 4.00 | 
6 | COCCOc1ncc2[nH]c(=O)n(Cc3ccc(CN4CCC(F)(F)C4)cc3)c2n1 [Example 54, 9-(4-((3,3-difluoropyrrolidin-1-yl)methyl)benzyl)-2-(2-methoxyethoxy)-7,9-dihydro-8H-purin-8-one] | 4.00 to 5.00 | < 4.00 | 
7 | CC(C)OCCOc1ncc2[nH]c(=O)n(Cc3ccc(CN4CCCC4)cc3)c2n1 [Example 64, 9-(4-(pyrrolidin-1-ylmethyl)benzyl)-2-(2-isopropoxyethoxy)-7,9-dihydro-8H-purin-8-one] | 5.00 to 6.00 | < 4.00 | 
8 | COCCOc1ncc2[nH]c(=O)n(Cc3ccc(CN4C5CCC4CC5)cc3)c2n1 [Example 53, 9-(4-((7-azabicyclo[2.2.1]heptan-7-yl)methyl)benzyl)-2-(2-methoxyethoxy)-7,9-dihydro-8H-purin-8-one] | 5.00 to 6.00 | < 4.00 | 
9 | COCCOc1ncc2[nH]c(=O)n(Cc3ccc(CN4CCC[C@H]4C(=O)OC)cc3)c2n1 [Example 8, methyl (4-((2-(2-methoxyethoxy)-8-oxo-7,8-dihydro-9H-purin-9-yl)methyl)benzyl)-L-pyrrolidine-2-carboxylate] | 4.00 to 5.00 | < 4.00 | 
10 | COCCOc1ncc2[nH]c(=O)n(Cc3cccc(CN4CCC[C@H]4C(=O)OC)c3)c2n1 [Example 24, methyl (3-((2-(2-methoxyethoxy)-8-oxo-7,8-dihydro-9H-purin-9-yl)methyl)benzyl)-L-pyrrolidine-2-carboxylate] | < 4.00 | < 4.00 | 
